In US4530838A, “Synthetic calcitonin-gene-related peptides for lowering blood pressure or gastric acid secretion in mammals” (The Salk Institute for Biological Studies, priority 1983, dated 1985):

Assays:
[1] = Plasma catecholamine (norepinephrine) levels in unanesthetized animals; format: in vivo, rats and Beagle dogs; conditions: IV and ICV, 6.5 nmoles
Experimental: (§1) The synthetic CGRP was examined for its effect on mean arterial blood pressure(MAP) gastric acid secretion and plasma catecholamine levels. The effects of CGRP on MAP, gastric secretion and plasma catecholamine levels were determined in unanesthetized rats and Beagle dogs. MAP was measured via direct arterial monitoring and gastric acids were collected from chronic gastric-abdominal wall cannula. […] Mean arterial blood pressure in rats fell from 106 to 57±2 mm Hg within about 1 minute following an injection of 6.5 nmoles CGRP and then slowly returned to control values during a period of more than one hour. The iv administration of an injection equal to 650 pmoles of CGRP lowered MAP to 73±3 mm Hg in about one minute, returning to control value in about 1 hour. IV and ICV administration of CGRP (10 pmoles) to rats and dogs lowers pentagastrin-induced acid secretion by more than 70% for several hours.

rats [2] = assay: Mean arterial blood pressure (MAP) by direct arterial monitoring in unanesthetized rats; format: in vivo
Experimental: as §1

Beagle dogs [3] = assay: Pentagastrin-induced gastric acid secretion, chronic gastric-abdominal wall cannula, dogs; format: in vivo; conditions: IV and ICV, 10 pmoles, for several hours
Experimental: as §1

[4] = Blood pressure (MAP) lowering, general procedure of Example I, species not stated; format: in vivo; conditions: species and dose not stated
Experimental: as §1
The peptide [Lys^35 ]-CGRP having the formula: [drawing 7] is synthesized.

Beagle dogs [5] = assay: Mean arterial blood pressure (MAP) by direct arterial monitoring in unanesthetized Beagle dogs; format: in vivo
Experimental: as §1

rats [6] = assay: Pentagastrin-induced gastric acid secretion, chronic gastric-abdominal wall cannula, rats; format: in vivo; conditions: IV and ICV, 10 pmoles, for several hours
Experimental: as §1

[7] = iv, degree and duration dose-related

**Q.** For `CC(C)C[C@H](NC(=O)CNC(=O)[C@H](C)NC(=O)[C@H](CC(C)C)NC(=O)[C@H](CCCNC(=N)N)NC(=O)[C@H](Cc1c[nH]cn1)NC(=O)[C@@H](NC(=O)[C@@H](NC(=O)[C@@H]1CSSC[C@H](NC(=O)[C@@H](N)CO)C(=O)N[C@@H](CC(N)=O)C(=O)N[C@@H]([C@@H](C)O)C(=O)N[C@@H](C)C(=O)N[C@@H]([C@@H](C)O)C(=O)N1)C(C)C)[C@@H](C)O)C(=O)N[C@@H](CC(C)C)C(=O)N[C@@H](CO)C(=O)N[C@@H](CCCNC(=N)N)C(=O)N[C@@H](CO)C(=O)NCC(=O)NCC(=O)N[C@H](C(=O)N[C@H](C(=O)N[C@@H](CCCCN)C(=O)N[C@@H](CC(=O)O)C(=O)N[C@@H](CC(N)=O)C(=O)N[C@@H](Cc1ccccc1)C(=O)N[C@H](C(=O)N1CCC[C@H]1C(=O)N[C@H](C(=O)N[C@@H](CC(N)=O)C(=O)N[C@H](C(=O)NCC(=O)N[C@@H](CO)C(=O)N[C@@H](CCC(=O)O)C(=O)N[C@@H](C)C(=O)N[C@@H](Cc1ccccc1)C(N)=O)C(C)C)[C@@H](C)O)C(C)C)C(C)C)C(C)C` [CGRP], which Norepinephrine in plasma [1] is on record?
**A.** Its Norepinephrine in plasma is “significant elevation”.

**Q.** What about the “Rapid decrease in MAP evoked, intercerebroventricular (icv) administration” value (rats [2]; icv) of the same compound?
**A.** Its value is “not”.

**Q.** And the “Period of return of MAP to control values” (rats [2]; injection of 6.5 nmoles)?
**A.** The value was “more than one”.

**Q.** And the “Mean arterial blood pressure after injection” value (rats [2]; injection of 6.5 nmoles, fell from 106 within about 1 minute)?
**A.** Its value is 57±2 mm Hg.

**Q.** What about the “Time of return of MAP to control value” (rats [2]; iv injection of 650 pmoles) of the same compound?
**A.** The value was “about 1 hour”.

**Q.** What about the “Mean arterial blood pressure after injection” value (rats [2]; iv injection of 650 pmoles, in about one minute) of the same compound?
**A.** Its value is 73±3 mm Hg.

**Q.** And the “Effect on MAP, intravenous (iv) administration” value (rats [2]; [7])?
**A.** Its value is “rapid decrease in MAP”.

**Q.** And the “Lowering of pentagastrin-induced acid secretion” value (Beagle dogs [3])?
**A.** Its value is “more than 70%”.

**Q.** What about the “Effect on blood pressure / MAP” value [4] of the same compound?
**A.** The value was “substantially lower blood pressure for an extended time period”.

**Q.** And the “Rapid decrease in MAP evoked, intercerebroventricular (icv) administration” value (Beagle dogs [5]; icv)?
**A.** Its value is “not”.

**Q.** What about the “Effect on MAP, intravenous (iv) administration” value (Beagle dogs [5]; [7]) of the same compound?
**A.** The value was “rapid decrease in MAP”.

**Q.** What about the “Lowering of pentagastrin-induced acid secretion” value (rats [6]) of the same compound?
**A.** Its value is “more than 70%”.

**Q.** For `CC(C)C[C@H](NC(=O)CNC(=O)[C@H](C)NC(=O)[C@H](CC(C)C)NC(=O)[C@H](CCCNC(=N)N)NC(=O)[C@H](Cc1c[nH]cn1)NC(=O)[C@@H](NC(=O)[C@@H](NC(=O)[C@@H]1CSSC[C@H](NC(=O)[C@@H](N)CO)C(=O)N[C@@H](CC(N)=O)C(=O)N[C@@H]([C@@H](C)O)C(=O)N[C@@H](C)C(=O)N[C@@H]([C@@H](C)O)C(=O)N1)C(C)C)[C@@H](C)O)C(=O)N[C@@H](CC(C)C)C(=O)N[C@@H](CO)C(=O)N[C@@H](CCCNC(=N)N)C(=O)N[C@@H](CO)C(=O)NCC(=O)NCC(=O)N[C@H](C(=O)N[C@H](C(=O)N[C@@H](CCCCN)C(=O)N[C@@H](CC(=O)O)C(=O)N[C@@H](CC(N)=O)C(=O)N[C@@H](Cc1ccccc1)C(=O)N[C@H](C(=O)N1CCC[C@H]1C(=O)N[C@H](C(=O)N[C@@H](CC(N)=O)C(=O)N[C@H](C(=O)NCC(=O)N[C@@H](CO)C(=O)N[C@@H](CCCCN)C(=O)N[C@@H](C)C(=O)N[C@@H](Cc1ccccc1)C(N)=O)C(C)C)[C@@H](C)O)C(C)C)C(C)C)C(C)C` [[Lys^35]-CGRP], which “Effect on blood pressure / MAP” value [4] is on record?
**A.** The value was “very significant lowering of MAP”.
